# Tests used:
# Assay in all cases: relative viability (nuclei count vs DMSO), 5 days (fraction); higher = more cells survive
# LC-2-ad = tested on: LC-2-ad
# How it was run: (§1)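 The day after seeding in 1536-well plates, lung cancer cell lines were treated by pin tool with a single drug, or with a fixed anchor-drug dose together with five library-drug doses (not always all listed) in √10 steps. After 5 days, a combined fix-and-stain solution (final 0.05% Triton X-100, 1% formaldehyde, 1 ug/ml Hoechst) was added. Nuclei counted on 4× images gave relative viability as treated counts over vehicle counts, reported as the median of duplicate plates.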
# A-427 = tested on: A-427
# How it was run: as §1
# NCI-H1944 = tested on: NCI-H1944
# How it was run: as §1
# PC-3 [JPC-3] = tested on: PC-3 [JPC-3]
# How it was run: as §1
# LCLC-97TM1 = tested on: LCLC-97TM1
# How it was run: as §1
# NCI-H1915 = tested on: NCI-H1915
# How it was run: as §1
# NCI-H441 = tested on: NCI-H441
# How it was run: as §1
# NCI-H661 = tested on: NCI-H661
# How it was run: as §1
# NCI-H460 = tested on: NCI-H460
# How it was run: as §1
# BEN = tested on: BEN
# How it was run: as §1
# NCI-H1650 = tested on: NCI-H1650
# How it was run: as §1
# CAL-12T = tested on: CAL-12T
# How it was run: as §1
# NCI-H2023 = tested on: NCI-H2023
# How it was run: as §1
# NCI-H1651 = tested on: NCI-H1651
# How it was run: as §1
# NCI-H650 = tested on: NCI-H650
# How it was run: as §1
# NCI-H520 = tested on: NCI-H520
# How it was run: as §1
# NCI-H2087 = tested on: NCI-H2087
# How it was run: as §1
# NCI-H596 = tested on: NCI-H596
# How it was run: as §1
# 201T = tested on: 201T
# How it was run: as §1
# H3255 = tested on: H3255
# How it was run: as §1
structure (smiles),measurement,setting,value
CCN(CC)CCCCNc1ncc2cc(-c3cc(OC)cc(OC)c3)c(NC(=O)NC(C)(C)C)nc2n1 + Nc1nc2[nH]cc(CCc3ccc(C(=O)N[C@@H](CCC(=O)O)C(=O)O)cc3)c2c(=O)[nH]1 [Pemetrexed] (partner 0.2 µM),relative viability,LC-2-ad; first compound 0.01 µM,0.293
same,relative viability,LC-2-ad; first compound 0.03162 µM,0.267
same,relative viability,LC-2-ad; first compound 0.1 µM,0.272
same,relative viability,LC-2-ad; first compound 0.3162 µM,0.264
same,relative viability,LC-2-ad; first compound 1 µM,0.271
same,relative viability,A-427; first compound 0.01 µM,1.01
same,relative viability,A-427; first compound 0.03162 µM,1
same,relative viability,A-427; first compound 0.1 µM,1.06
same,relative viability,A-427; first compound 0.3162 µM,1.23
same,relative viability,A-427; first compound 1 µM,0.965
same,relative viability,NCI-H1944; first compound 0.01 µM,0.603
same,relative viability,NCI-H1944; first compound 0.03162 µM,0.804
same,relative viability,NCI-H1944; first compound 0.1 µM,0.705
same,relative viability,NCI-H1944; first compound 0.3162 µM,0.631
same,relative viability,NCI-H1944; first compound 1 µM,0.605
same,relative viability,PC-3 [JPC-3]; first compound 0.03162 µM,1
same,relative viability,PC-3 [JPC-3]; first compound 0.1 µM,1.15
same,relative viability,PC-3 [JPC-3]; first compound 0.3162 µM,1.7
same,relative viability,PC-3 [JPC-3]; first compound 1 µM,0.883
same,relative viability,LCLC-97TM1; first compound 0.01 µM,0.174
same,relative viability,LCLC-97TM1; first compound 0.03162 µM,0.185
same,relative viability,LCLC-97TM1; first compound 0.1 µM,0.174
same,relative viability,LCLC-97TM1; first compound 0.3162 µM,0.159
same,relative viability,LCLC-97TM1; first compound 1 µM,0.189
same,relative viability,NCI-H1915; first compound 0.01 µM,0.511
same,relative viability,NCI-H1915; first compound 0.03162 µM,0.521
same,relative viability,NCI-H1915; first compound 0.1 µM,0.558
same,relative viability,NCI-H1915; first compound 0.3162 µM,0.518
same,relative viability,NCI-H1915; first compound 1 µM,0.445
same,relative viability,NCI-H441; first compound 0.01 µM,0.257
same,relative viability,NCI-H441; first compound 0.03162 µM,0.232
same,relative viability,NCI-H441; first compound 0.1 µM,0.26
same,relative viability,NCI-H441; first compound 0.3162 µM,0.249
same,relative viability,NCI-H441; first compound 1 µM,0.25
same,relative viability,NCI-H661; first compound 0.01 µM,0.968
same,relative viability,NCI-H661; first compound 0.03162 µM,0.886
same,relative viability,NCI-H661; first compound 0.1 µM,0.961
same,relative viability,NCI-H661; first compound 0.3162 µM,0.986
same,relative viability,NCI-H661; first compound 1 µM,0.95
same,relative viability,NCI-H460; first compound 0.01 µM,0.0558
same,relative viability,NCI-H460; first compound 0.03162 µM,0.0576
same,relative viability,NCI-H460; first compound 0.1 µM,0.0567
same,relative viability,NCI-H460; first compound 0.3162 µM,0.056
same,relative viability,NCI-H460; first compound 1 µM,0.0563
same,relative viability,BEN; first compound 0.01 µM,0.664
same,relative viability,BEN; first compound 0.03162 µM,0.681
same,relative viability,BEN; first compound 0.1 µM,0.826
same,relative viability,BEN; first compound 0.3162 µM,0.77
same,relative viability,BEN; first compound 1 µM,0.69
same,relative viability,NCI-H1650; first compound 0.01 µM,0.398
same,relative viability,NCI-H1650; first compound 0.03162 µM,0.377
same,relative viability,NCI-H1650; first compound 0.1 µM,0.352
same,relative viability,NCI-H1650; first compound 0.3162 µM,0.326
same,relative viability,NCI-H1650; first compound 1 µM,0.344
same,relative viability,CAL-12T; first compound 0.01 µM,1.4
same,relative viability,CAL-12T; first compound 0.03162 µM,1.2
same,relative viability,CAL-12T; first compound 0.1 µM,1.53
same,relative viability,CAL-12T; first compound 0.3162 µM,1.44
same,relative viability,CAL-12T; first compound 1 µM,1.1
same,relative viability,NCI-H2023; first compound 0.01 µM,0.264
same,relative viability,NCI-H2023; first compound 0.03162 µM,0.225
same,relative viability,NCI-H2023; first compound 0.1 µM,0.323
same,relative viability,NCI-H2023; first compound 0.3162 µM,0.264
same,relative viability,NCI-H2023; first compound 1 µM,0.219
same,relative viability,NCI-H1651; first compound 0.01 µM,0.597
same,relative viability,NCI-H1651; first compound 0.03162 µM,0.635
same,relative viability,NCI-H1651; first compound 0.1 µM,0.643
same,relative viability,NCI-H1651; first compound 0.3162 µM,0.787
same,relative viability,NCI-H1651; first compound 1 µM,0.495
same,relative viability,NCI-H650; first compound 0.01 µM,0.877
same,relative viability,NCI-H650; first compound 0.03162 µM,0.842
same,relative viability,NCI-H650; first compound 0.1 µM,1.04
same,relative viability,NCI-H650; first compound 0.3162 µM,1.03
same,relative viability,NCI-H650; first compound 1 µM,0.948
same,relative viability,NCI-H520; first compound 0.01 µM,0.8
same,relative viability,NCI-H520; first compound 0.03162 µM,0.694
same,relative viability,NCI-H520; first compound 0.1 µM,0.555
same,relative viability,NCI-H520; first compound 0.3162 µM,0.511
same,relative viability,NCI-H520; first compound 1 µM,0.314
same,relative viability,NCI-H2087; first compound 0.01 µM,0.716
same,relative viability,NCI-H2087; first compound 0.03162 µM,0.637
same,relative viability,NCI-H2087; first compound 0.1 µM,0.746
same,relative viability,NCI-H2087; first compound 0.3162 µM,0.645
same,relative viability,NCI-H2087; first compound 1 µM,0.727
same,relative viability,NCI-H596; first compound 0.01 µM,0.453
same,relative viability,NCI-H596; first compound 0.03162 µM,0.496
same,relative viability,NCI-H596; first compound 0.1 µM,0.488
same,relative viability,NCI-H596; first compound 0.3162 µM,0.584
same,relative viability,NCI-H596; first compound 1 µM,0.443
same,relative viability,201T; first compound 0.01 µM,0.351
same,relative viability,201T; first compound 0.03162 µM,0.315
same,relative viability,201T; first compound 0.1 µM,0.331
same,relative viability,201T; first compound 0.3162 µM,0.349
same,relative viability,201T; first compound 1 µM,0.313
same,relative viability,H3255; first compound 0.01 µM,0.626
same,relative viability,H3255; first compound 0.03162 µM,0.568
same,relative viability,H3255; first compound 0.1 µM,0.615
same,relative viability,H3255; first compound 0.3162 µM,0.632
same,relative viability,H3255; first compound 1 µM,0.513

# — the supplement of paper PMC10307832
